Experimental data as given in patent US8431566B2, “Cyclopamine lactam analogs and methods of use thereof” (Infinity Discovery, Inc., priority 2007, dated 2013).

Key:
NCI-H929 = experiment: Multiple myeloma colony growth in methylcellulose, NCI-H929; format: cell-based, human; settings: treated 96 hours, plated in methylcellulose, colonies quantified 10-21 days later
Protocol: (§1) The ability of Compound 12 to inhibit the growth of multiple myeloma cells (MM) in vitro was tested, using human multiple myeloma cells lines (NCI-H929 and KMS12) and primary clinical bone marrow specimens derived from patients with MM. The cells were treated for 96 hours with Compound, washed, then plated in methylcellulose. Tumor colonies were quantified 10-21 days later as an indicator of cell growth potential following treatment.

[1] = system: Hedgehog pathway in C3H10T1/2 cells; experiment: C3H10T1/2 osteoblast differentiation assay (alkaline phosphatase readout, Shh-induced); format: cell-based; settings: Mus musculus, C3H 10T1/2, Approximate EC50 for inhibition, sonic Hedgehog 250 ng/ml, AP activity normalized against total protein
Description: Hedgehog pathway specific cancer cell killing effects may be ascertained using the following assay. C3H10T1/2 cells differentiate into osteoblasts when contacted with the sonic hedgehog peptide (Shh-N). Upon differentiation; these osteoblasts produce high levels of alkaline phosphatase (AP) which can be measured in an enzymatic assay (Nakamura, et al., BBRC (1997) 237:465). Compounds that block the differentiation of C3H10T1/2 into osteoblasts (a Shh dependent event) can therefore be identified by a reduction in AP production (van der Horst, et al., Bone (2003) 33:899). The assay details are described below. The results (EC50 for inhibition) of the differentiation assay are shown below in Table 1.
Mouse embryonic mesoderm fibroblasts C3H10T1/2 cells (obtained from ATCC) were cultured in Basal MEM Media (Gibco/Invitrogen) supplemented with 10% heat inactivated FBS (Hyclone), 50 units/ml penicillin and 50 ug/ml streptomycin (Gibco/Invitrogen) at 37° C. with 5% CO2 in air atmosphere.
C3H10T1/2 cells were plated in 96 wells with a density of 8×10^3 cells/well. Cells were grown to confluence (72 hrs). After sonic Hedgehog (250 ng/ml), and/or compound treatment, the cells were lysed in 110 μL, of lysis buffer (50 mM Tris pH 7.4, 0.1% Triton X 100), plates were sonicated and lysates spun through 0.2 μm PVDF plates (Corning). 40 μL of lysates was assayed for AP activity in alkaline buffer solution (Sigma) containing 1 mg/ml p-Nitrophenyl Phosphate. After incubating for 30 min at 37° C., the plates were read on an Envision plate reader at 405 nm. Total protein was quantified with a BCA protein assay kit from Pierce according to manufacturer's instructions. AP activity was normalized against total protein.

U937 = experiment: AML colony formation in methylcellulose, U937; format: cell-based, human; settings: 1.0 uM, 72 hours
Protocol: (§2) The ability of Compound 12 to inhibit the in vitro growth of human cell lines derived from patients with acute myeloid leukemia (AML, cell line U937) and myelodysplastic syndrome (MDS, cell line KG1 and KG1a) was studied. Each of the cell lines was treated for 72 hours with Compound 12 (1.0 uM) followed by plating in methylcellulose.

[2] = system: Gli-reponsive luciferase reporter in Nalm-6; experiment: Gli-responsive luciferase reporter transient transfection assay, Nalm-6; format: cell-based; settings: 1 uM, vehicle alone 8.42
Protocol: (§3) The activity of Compound 12 (1 uM) against three pre-B cell acute lymphocytic leukemia cell lines (REH, RS4-11, and Nalm-6) was studied, using a transient transfection assay in which a Gli-reponsive luciferase reporter was transiently transfected into cells. Treatment with Compound 12 repressed luciferase activity compared to a vehicle treated control (Table 4).

RL = experiment: Non-Hodgkin's lymphoma colony formation in methylcellulose, RL; format: cell-based, human; settings: NHL, 1.0 uM, 72 hours
Protocol: (§4) The ability of Compound 12 to inhibit the in vitro growth of human cell lines derived from patients with non-Hodgkin's lymphoma (cell lines RL and Jeko-1) and Hodgkin's disease (cell line L428) was studied. Each of the cell lines was treated for 72 hours with Compound 12 (1.0 uM) followed by plating in methylcellulose.

[3] = system: Gli-reponsive luciferase reporter in REH; experiment: Gli-responsive luciferase reporter transient transfection assay, REH; format: cell-based; settings: 1 uM, vehicle alone 6.73
Protocol: as §3

human Gli-1 = experiment: Pancreatic cancer model: q-RT-PCR of HH pathway genes in harvested tumors, human Gli-1; format: in vivo; settings: BXPC-3 tumors harvested 4 hours post the last dose; 30 mg/kg/day orally
Protocol: (§5) The activity of Compound 12 was further tested in a human pancreatic model: BXPC-3 cells were implanted subcutaneously into the flanks of the right legs of mice. On day 42 post-tumor implant, the mice were randomized into two groups to receive either Vehicle (30% HPBCD) or Compound 12. Compound 12 was administered orally at 30 mg/kg/day. After receiving 25 daily doses, Compound 12 reduced tumor volume growth by 16% when compared to the vehicle control. At the end of the study, the tumors were harvested 4 hours post the last dose to evaluate an on target response by q-RT-PCR analysis of the HH pathway genes.

Gli-1 mRNA = experiment: Medulloblastoma model (Ptch1/Hic1 subcutaneous allografts): Gli-1 mRNA expression in tumors; format: in vivo, mouse; settings: single oral dose, subcutaneously implanted medulloblastoma tumors, 8 hours post dose
Protocol: (§6) The activity of Compound 12 was also evaluated in a transgenic mouse model of medulloblastoma. Mice that are heterozygous for loss of function mutations in the tumor suppressors Patched1 (Ptch1) and Hypermethylated in Cancer (Hic1) develop spontaneous medulloblastoma. […] When passaged as subcutaneous allografts, these tumors grow aggressively and are Hedgehog pathway-dependent. This model was employed to evaluate the efficacy of orally administered Compound, and to correlate activity with drug exposure in plasma and tumors.

[4] = system: Gli-reponsive luciferase reporter in RS4-11; experiment: Gli-responsive luciferase reporter transient transfection assay, RS4-11; format: cell-based; settings: 1 uM, vehicle alone 12.97
Protocol: as §3

L428 = experiment: Hodgkin's disease colony formation in methylcellulose, L428; format: cell-based, human; settings: HD, 1.0 uM, 72 hours
Protocol: as §4

REH = experiment: Pre-B cell ALL colony formation in methylcellulose, REH; format: cell-based; settings: treated 72 hours
Protocol: (§7) The effect of Compound 12 on the growth of two of these cell lines, treated in vitro for 72 hours, was also studied. Following treatment, cells were washed and plated in methylcellulose.

Jeko-1 = experiment: Non-Hodgkin's lymphoma colony formation in methylcellulose, Jeko-1; format: cell-based, human; settings: NHL, 1.0 uM, 72 hours
Protocol: as §4

RS4-11 = experiment: Pre-B cell ALL colony formation in methylcellulose, RS4-11; format: cell-based; settings: treated 72 hours
Protocol: as §7

KG1 = experiment: MDS colony formation in methylcellulose, KG1; format: cell-based, human; settings: 1.0 uM, 72 hours
Protocol: as §2

KG1a = experiment: MDS colony formation in methylcellulose, KG1a; format: cell-based, human; settings: 1.0 uM, 72 hours
Protocol: as §2

BXPC-3 cells = experiment: Pancreatic cancer model: subcutaneous BXPC-3 tumors in mice, tumor volume; format: in vivo, human; settings: BXPC-3 subcutaneous in mice; orally 30 mg/kg/day, 25 daily doses
Protocol: as §5

murine Gli-1 mRNA = experiment: Pancreatic cancer model: q-RT-PCR of HH pathway genes in harvested tumors, murine Gli-1; format: in vivo; settings: BXPC-3 tumors harvested 4 hours post the last dose; 30 mg/kg/day orally
Protocol: as §5

medulloblastoma = experiment: Medulloblastoma model (Ptch1/Hic1 subcutaneous allografts): tumor growth; format: in vivo, mouse
Protocol: as §6

KMS12 = experiment: Multiple myeloma colony growth in methylcellulose, KMS12; format: cell-based, human; settings: treated 96 hours, plated in methylcellulose, colonies quantified 10-21 days later
Protocol: as §1

[5] = system: primary clinical bone marrow specimens derived from patients with MM; experiment: Multiple myeloma colony growth in methylcellulose, primary clinical bone marrow specimens; format: cell-based, human; settings: clinical samples from MM patients; treated 96 hours, plated in methylcellulose
Protocol: as §1

[6] = 2° plating (replating of colonies)

CC1=C2C[C@H]3[C@@H](CC[C@@H]4CNC(=O)CC[C@@]43C)[C@@H]2CC[C@@]2(C1)O[C@@H]1C[C@H](C)CN[C@H]1[C@H]2C [Compound 12]
% growth of cells (untreated control 100%) (NCI-H929): less than 25%
EC50 [1]: 20 to 100 nM
% colony formation with Compound 12 (relative to vehicle control) (U937): 43.4%
Relative luc activity (+ Compound) [2]: 1.44
% colony formation with Compound 12 (relative to vehicle control) (RL): 14.3%
Relative luc activity (+ Compound) [3]: 1.12
human Gli-1 modulation (q-RT-PCR) (human Gli-1): no modulation
HH pathway regulation measured by Gli-1 mRNA expression (Gli-1 mRNA): dose-dependent down-regulation
Relative luc activity (+ Compound) [4]: 1.31
% colony formation with Compound 12 (relative to vehicle control) (L428): 21.4%
% colony formation with Compound (relative to vehicle control) - 1° plating (REH; 1° plating): 63%
% colony formation with Compound (relative to vehicle control) - 2° plating (REH; [6]): 9%
% colony formation with Compound 12 (relative to vehicle control) (Jeko-1): 27.4%
% colony formation with Compound (relative to vehicle control) - 1° plating (RS4-11; 1° plating): 71%
% colony formation with Compound (relative to vehicle control) - 2° plating (RS4-11; [6]): 11%
% colony formation with Compound 12 (relative to vehicle control) (KG1): 25.1%
% colony formation with Compound 12 (relative to vehicle control) (KG1a): 34.6%
reduced tumor volume growth compared to the vehicle control (BXPC-3 cells): 16%
murine Gli-1 mRNA levels (q-RT-PCR) compared to Vehicle treated group (murine Gli-1 mRNA): robust down-regulation
ED50 (medulloblastoma; Mus musculus, daily oral dosing, medulloblastoma allografts, read-out: approximate effective daily oral dose for 50% inhibition of tumor growth (ED50)): 3 to 7.5 mg/kg
tumor regression (medulloblastoma; daily (QD) PO administration, at higher doses): frank tumor regression seen at higher doses
inhibition of tumor growth (medulloblastoma; daily (QD) PO administration, medulloblastoma allografts): dose dependent inhibition of tumor growth
% growth of cells (untreated control 100%) (KMS12): less than 25%
% growth of cells (untreated control 100%) [5]: less than 25%

CC1=C2C[C@H]3[C@@H](CC[C@@H]4CN(C)C(=O)CC[C@@]43C)[C@@H]2CC[C@@]2(C1)O[C@@H]1C[C@H](C)CN[C@H]1[C@H]2C [Compound 31]
EC50 [1]: 20 to 100 nM

CC1=C2C[C@H]3[C@@H](CC[C@H]4NC(=O)CC[C@@]43C)C2CC[C@@]2(C1)O[C@@H]1C[C@H](C)CN[C@H]1[C@H]2C (some centres unmarked) [Compound 1]
EC50 [1]: < 20 nM

CC1=C2C[C@H]3[C@@H](CC[C@@H]4CC(=O)NCC[C@@]43C)[C@@H]2CC[C@@]2(C1)O[C@@H]1C[C@H](C)CN[C@H]1[C@H]2C [Compound 19]
EC50 [1]: > 100 nM

CC1=C2C[C@H]3[C@@H](CC[C@@H]4NC(=O)CC[C@@]43C)[C@@H]2CC[C@@]2(C1)O[C@@H]1C[C@H](C)CN[C@H]1[C@H]2C [Compound 11]
EC50 [1]: > 100 nM

CC1=C2C[C@H]3[C@@H](CC[C@@H]4CNC(=O)CC[C@@]43C)[C@@H]2CC[C@@]2(C1)O[C@@H]1C[C@H](C)CN(S(C)(=O)=O)[C@H]1[C@H]2C [Compound 40]
EC50 [1]: < 20 nM

CC1=C2C[C@H]3[C@@H](CCC4=CN(C)C(=O)CC[C@@]43C)[C@@H]2CC[C@@]2(C1)O[C@@H]1C[C@H](C)CN[C@H]1[C@H]2C [Compound 41]
EC50 [1]: > 100 nM

CC1=C2C[C@H]3[C@@H](CC[C@@H]4CN(C)C(=O)CC[C@@]43C)[C@@H]2CC[C@@]2(C1)O[C@@H]1C[C@H](C)CN(S(C)(=O)=O)[C@H]1[C@H]2C [Compound 35]
EC50 [1]: > 100 nM

CC1=C2C[C@H]3[C@@H](CC[C@@H]4CCN(S(C)(=O)=O)CC[C@@]43C)[C@@H]2CC[C@@]2(C1)O[C@@H]1C[C@H](C)CN(S(C)(=O)=O)[C@H]1[C@H]2C [Compound 50]
EC50 [1]: > 100 nM
